# Experiments:
# Format in all cases: functional
# [1] = test system: Staphylococcus aureus; assay: In vitro minimum inhibitory concentration against methicillin sensitive […] A15090
# [2] = test system: Enterococcus faecalis; assay: In vitro minimum inhibitory concentration against methicillin sensitive Enterococcus faecalis A20688
# [3] = test system: Streptococcus pneumoniae; assay: In vitro minimum inhibitory concentration against penicillin resistant Streptococcus pneumoniae A28272
# [4] = test system: Mus musculus; assay: In vivo protective dose required for mouse against systemic lethal […] infection; settings: read-out: PD50
SMILES,MIC [1],MIC [2],MIC [3],ED50 [4]
CO/C(C)=C1/NC(=O)C([C@@H](C)O)NC(=O)c2csc(n2)-c2cc(O)c(-c3nc(C(=O)NC(SC4CN5CCC4C5)C(N)=O)cs3)nc2-c2csc(n2)[C@@H]2COC(=O)c3c4c5c(cccc5n3O)COC(=O)[C@@H](O[C@H]3C[C@](C)(O)[C@H](N(C)C)[C@H](C)O3)[C@@H](OC4)[C@H](NC(=O)c3csc1n3)c1nc(cs1)C(=O)N2 (some centres not stated),2 µg/mL,2 µg/mL,0.25 µg/mL,2.5 mg/kg
COCC(Cn1ccnc1)SC(NC(=O)c1csc(-c2nc3c(cc2O)-c2nc(cs2)C(=O)NC([C@@H](C)O)C(=O)N/C(=C(\C)OC)c2nc(cs2)C(=O)N[C@@H]2c4nc(cs4)C(=O)N[C@@H](COC(=O)c4c5c6c(cccc6n4O)COC(=O)[C@@H](O[C@H]4C[C@](C)(O)[C@H](N(C)C)[C@H](C)O4)[C@H]2OC5)c2nc-3cs2)n1)C(N)=O (some centres not stated),0.25 µg/mL,0.125 µg/mL,0.03 µg/mL,1.4 mg/kg
CO/C(C)=C1/NC(=O)C([C@@H](C)O)NC(=O)c2csc(n2)-c2cc(O)c(-c3nc(C(=O)NC(SC[C@@H]4NC(=O)NC4=O)C(N)=O)cs3)nc2-c2csc(n2)[C@@H]2COC(=O)c3c4c5c(cccc5n3O)COC(=O)[C@@H](O[C@H]3C[C@](C)(O)[C@H](N(C)C)[C@H](C)O3)[C@@H](OC4)[C@H](NC(=O)c3csc1n3)c1nc(cs1)C(=O)N2 (some centres not stated),4 µg/mL,128 µg/mL,0.03 µg/mL,> 10 mg/kg
CO/C(C)=C1/NC(=O)C([C@@H](C)O)NC(=O)c2csc(n2)-c2cc(O)c(-c3nc(C(=O)NC(SC(CC(=O)O)C(=O)O)C(N)=O)cs3)nc2-c2csc(n2)[C@@H]2COC(=O)c3c4c5c(cccc5n3O)COC(=O)[C@@H](O[C@H]3C[C@](C)(O)[C@H](N(C)C)[C@H](C)O3)[C@@H](OC4)[C@H](NC(=O)c3csc1n3)c1nc(cs1)C(=O)N2 (some centres not stated),4 µg/mL,4 µg/mL,0.25 µg/mL,> 10 mg/kg
CO/C(C)=C1/NC(=O)C([C@@H](C)O)NC(=O)c2csc(n2)-c2cc(O)c(-c3nc(C(=O)NC(SCC(NC(C)=O)C(=O)O)C(N)=O)cs3)nc2-c2csc(n2)[C@@H]2COC(=O)c3c4c5c(cccc5n3O)COC(=O)[C@@H](O[C@H]3C[C@](C)(O)[C@H](N(C)C)[C@H](C)O3)[C@@H](OC4)[C@H](NC(=O)c3csc1n3)c1nc(cs1)C(=O)N2 (some centres not stated),2 µg/mL,8 µg/mL,0.125 µg/mL,> 10 mg/kg
CCN(CC)CCSC(NC(=O)c1csc(-c2nc3c(cc2O)-c2nc(cs2)C(=O)NC([C@@H](C)O)C(=O)N/C(=C(\C)OC)c2nc(cs2)C(=O)N[C@@H]2c4nc(cs4)C(=O)N[C@@H](COC(=O)c4c5c6c(cccc6n4O)COC(=O)[C@@H](O[C@H]4C[C@](C)(O)[C@H](N(C)C)[C@H](C)O4)[C@H]2OC5)c2nc-3cs2)n1)C(N)=O (some centres not stated),0.125 µg/mL,0.25 µg/mL,0.015 µg/mL,1.1 mg/kg
CO/C(C)=C1/NC(=O)C([C@@H](C)O)NC(=O)c2csc(n2)-c2cc(O)c(-c3nc(C(=O)NC(SCCN=C(N)N)C(N)=O)cs3)nc2-c2csc(n2)[C@@H]2COC(=O)c3c4c5c(cccc5n3O)COC(=O)[C@@H](O[C@H]3C[C@](C)(O)[C@H](N(C)C)[C@H](C)O3)[C@@H](OC4)[C@H](NC(=O)c3csc1n3)c1nc(cs1)C(=O)N2 (some centres not stated),4 µg/mL,> 128 µg/mL,2 µg/mL,
CO/C(C)=C1/NC(=O)C([C@@H](C)O)NC(=O)c2csc(n2)-c2cc(O)c(-c3nc(C(=O)NC(SCCS(=O)(=O)[O-])C(N)=O)cs3)nc2-c2csc(n2)[C@@H]2COC(=O)c3c4c5c(cccc5n3O)COC(=O)[C@@H](O[C@H]3C[C@](C)(O)[C@H](N(C)C)[C@H](C)O3)[C@@H](OC4)[C@H](NC(=O)c3csc1n3)c1nc(cs1)C(=O)N2.[Na+] (some centres not stated),4 µg/mL,128 µg/mL,0.06 µg/mL,> 10 mg/kg
CO/C(C)=C1/NC(=O)C([C@@H](C)O)NC(=O)c2csc(n2)-c2cc(O)c(-c3nc(C(=O)NC(SCCP(=O)([O-])O)C(N)=O)cs3)nc2-c2csc(n2)[C@@H]2COC(=O)c3c4c5c(cccc5n3O)COC(=O)[C@@H](O[C@H]3C[C@](C)(O)[C@H](N(C)C)[C@H](C)O3)[C@@H](OC4)[C@H](NC(=O)c3csc1n3)c1nc(cs1)C(=O)N2.[Na+] (some centres not stated),2 µg/mL,32 µg/mL,0.25 µg/mL,
CO/C(C)=C1/NC(=O)C([C@@H](C)O)NC(=O)c2csc(n2)-c2cc(O)c(-c3nc(C(=O)NC(SCCc4nnn[nH]4)C(N)=O)cs3)nc2-c2csc(n2)[C@@H]2COC(=O)c3c4c5c(cccc5n3O)COC(=O)[C@@H](O[C@H]3C[C@](C)(O)[C@H](N(C)C)[C@H](C)O3)[C@@H](OC4)[C@H](NC(=O)c3csc1n3)c1nc(cs1)C(=O)N2 (some centres not stated),2 µg/mL,32 µg/mL,0.25 µg/mL,> 10 mg/kg
C=C(NC(=O)c1csc(-c2nc3c(cc2O)-c2nc(cs2)C(=O)N[C@@H]([C@@H](C)O)C(=O)N/C(=C(\C)OC)c2nc(cs2)C(=O)N[C@@H]2c4nc(cs4)C(=O)N[C@@H](COC(=O)c4c5c6c(cccc6n4O)COC(=O)[C@@H](O[C@H]4C[C@](C)(O)[C@H](N(C)C)[C@H](C)O4)[C@H]2OC5)c2nc-3cs2)n1)C(N)=O [MJ347-81F4 A],0.007 µg/mL,0.03 µg/mL,0.002 µg/mL,0.8 mg/kg
CO/C(C)=C1/NC(=O)C([C@@H](C)O)NC(=O)c2csc(n2)-c2cc(O)c(-c3nc(C(=O)NC(SCC(=O)O)C(N)=O)cs3)nc2-c2csc(n2)[C@@H]2COC(=O)c3c4c5c(cccc5n3O)COC(=O)[C@@H](O[C@H]3C[C@](C)(O)[C@H](N(C)C)[C@H](C)O3)[C@@H](OC4)[C@H](NC(=O)c3csc1n3)c1nc(cs1)C(=O)N2 (some centres not stated),2 µg/mL,1 µg/mL,0.125 µg/mL,> 10 mg/kg
CO/C(C)=C1/NC(=O)C([C@@H](C)O)NC(=O)c2csc(n2)-c2cc(O)c(-c3nc(C(=O)NC(SCCC(=O)O)C(N)=O)cs3)nc2-c2csc(n2)[C@@H]2COC(=O)c3c4c5c(cccc5n3O)COC(=O)[C@@H](O[C@H]3C[C@](C)(O)[C@H](N(C)C)[C@H](C)O3)[C@@H](OC4)[C@H](NC(=O)c3csc1n3)c1nc(cs1)C(=O)N2 (some centres not stated),1 µg/mL,,0.01 µg/mL,> 10 mg/kg
CCN(CC)CCS(=O)(=O)C(NC(=O)c1csc(-c2nc3c(cc2O)-c2nc(cs2)C(=O)NC([C@@H](C)O)C(=O)N/C(=C(\C)OC)c2nc(cs2)C(=O)N[C@@H]2c4nc(cs4)C(=O)N[C@@H](COC(=O)c4c5c6c(cccc6n4O)COC(=O)[C@@H](O[C@H]4C[C@](C)(O)[C@H](N(C)C)[C@H](C)O4)[C@H]2OC5)c2nc-3cs2)n1)C(N)=O (some centres not stated),0.06 µg/mL,0.03 µg/mL,0.007 µg/mL,1.4 mg/kg
CO/C(C)=C1/NC(=O)C([C@@H](C)O)NC(=O)c2csc(n2)-c2cc(O)c(-c3nc(C(=O)NC(C(N)=O)S(=O)(=O)C4C5CCN4CC5)cs3)nc2-c2csc(n2)[C@@H]2COC(=O)c3c4c5c(cccc5n3O)COC(=O)[C@@H](O[C@H]3C[C@](C)(O)[C@H](N(C)C)[C@H](C)O3)[C@@H](OC4)[C@H](NC(=O)c3csc1n3)c1nc(cs1)C(=O)N2 (some centres not stated),0.5 µg/mL,1 µg/mL,0.06 µg/mL,
CO/C(C)=C1/NC(=O)C([C@@H](C)O)NC(=O)c2csc(n2)-c2cc(O)c(-c3nc(C(=O)NC(SCCc4cnccn4)C(N)=O)cs3)nc2-c2csc(n2)[C@@H]2COC(=O)c3c4c5c(cccc5n3O)COC(=O)[C@@H](O[C@H]3C[C@](C)(O)[C@H](N(C)C)[C@H](C)O3)[C@@H](OC4)[C@H](NC(=O)c3csc1n3)c1nc(cs1)C(=O)N2 (some centres not stated),0.125 µg/mL,0.25 µg/mL,0.015 µg/mL,4.4 mg/kg
CO/C(C)=C1/NC(=O)C([C@@H](C)O)NC(=O)c2csc(n2)-c2cc(O)c(-c3nc(C(=O)NC(SCCN(C)C)C(N)=O)cs3)nc2-c2csc(n2)[C@@H]2COC(=O)c3c4c5c(cccc5n3O)COC(=O)[C@@H](O[C@H]3C[C@](C)(O)[C@H](N(C)C)[C@H](C)O3)[C@@H](OC4)[C@H](NC(=O)c3csc1n3)c1nc(cs1)C(=O)N2 (some centres not stated),0.125 µg/mL,0.25 µg/mL,0.015 µg/mL,1 mg/kg
CO/C(C)=C1/NC(=O)C([C@@H](C)O)NC(=O)c2csc(n2)-c2cc(O)c(-c3nc(C(=O)NC(SCC(N)C(=O)O)C(N)=O)cs3)nc2-c2csc(n2)[C@@H]2COC(=O)c3c4c5c(cccc5n3O)COC(=O)[C@@H](O[C@H]3C[C@](C)(O)[C@H](N(C)C)[C@H](C)O3)[C@@H](OC4)[C@H](NC(=O)c3csc1n3)c1nc(cs1)C(=O)N2 (some centres not stated),1 µg/mL,4 µg/mL,2 µg/mL,

# — ChEMBL document CHEMBL1143531, “Synthesis, in vitro, and in vivo antibacterial activity of nocathiacin I thiol-Michael adducts” (2005)
